According to the supplement of paper PMC10307832:

What was measured:
Assay in all cases: relative viability (nuclei count vs DMSO), 5 days (fraction); higher = more cells survive
XMD13-2 + Palbociclib = compound: C1CC1C(=O)NC2=NNC3=C2C=CC(=C3)C4=CC(=CC=C4)C(=O)NC5CC5 [XMD13-2] + CC(=O)c1c(C)c2cnc(Nc3ccc(N4CCNCC4)cn3)nc2n(C2CCCC2)c1=O [Palbociclib] (partner 0.5 µM)
Procedure, shortened: (§1)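 Medians of duplicate plates are given as relative viability. That measure is the nuclei count in treated wells divided by the count in vehicle wells. Counts were taken on 4× images of lung cancer cell lines in 1536-well plates, 5 days after pin-tool dosing the day after seeding with one drug alone or a fixed anchor-drug dose plus five library-drug doses (not always all listed) in √10 steps.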

XMD13-2 + Tozasertib = compound: C1CC1C(=O)NC2=NNC3=C2C=CC(=C3)C4=CC(=CC=C4)C(=O)NC5CC5 [XMD13-2] + Cc1cc(Nc2cc(N3CCN(C)CC3)nc(Sc3ccc(NC(=O)C4CC4)cc3)n2)n[nH]1 [Tozasertib] (partner 0.1 µM)
Procedure, shortened: as §1

ALW-II-49-7 + OSI-027 = compound: Cc1ccc(C(=O)Nc2cccc(C(F)(F)F)c2)cc1Nc1cncc(C(N)=O)c1 [ALW-II-49-7] + COc1cccc2cc(-c3nc([C@H]4CC[C@H](C(=O)O)CC4)n4ncnc(N)c34)[nH]c12 [OSI-027] (partner 0.5 µM)
Procedure, shortened: as §1

Dasatinib + Phenformin = compound: Cc1nc(Nc2ncc(C(=O)Nc3c(C)cccc3Cl)s2)cc(N2CCN(CCO)CC2)n1 [Dasatinib] + N=C(N)NC(=N)NCCc1ccccc1 [Phenformin] (partner 250 µM)
Procedure, shortened: as §1

Cell Line	relative viability (XMD13-2 + Palbociclib; first compound 0.05 µM)	relative viability (XMD13-2 + Palbociclib; first compound 0.1581 µM)	relative viability (XMD13-2 + Palbociclib; first compound 0.5 µM)	relative viability (XMD13-2 + Palbociclib; first compound 1.581 µM)	relative viability (XMD13-2 + Palbociclib; first compound 5 µM)	relative viability (XMD13-2 + Tozasertib; first compound 0.05 µM)	relative viability (XMD13-2 + Tozasertib; first compound 0.1581 µM)	relative viability (XMD13-2 + Tozasertib; first compound 0.5 µM)	relative viability (XMD13-2 + Tozasertib; first compound 1.581 µM)	relative viability (XMD13-2 + Tozasertib; first compound 5 µM)	relative viability (ALW-II-49-7 + OSI-027; first compound 0.08 µM)	relative viability (ALW-II-49-7 + OSI-027; first compound 0.253 µM)	relative viability (ALW-II-49-7 + OSI-027; first compound 0.8 µM)	relative viability (ALW-II-49-7 + OSI-027; first compound 2.53 µM)	relative viability (ALW-II-49-7 + OSI-027; first compound 8 µM)	relative viability (Dasatinib + Phenformin; first compound 0.005 µM)	relative viability (Dasatinib + Phenformin; first compound 0.01581 µM)	relative viability (Dasatinib + Phenformin; first compound 0.05 µM)	relative viability (Dasatinib + Phenformin; first compound 0.1581 µM)	relative viability (Dasatinib + Phenformin; first compound 0.5 µM)
NCI-H838	0.238	0.214	0.249	0.224	0.205	0.277	0.27	0.263	0.293	0.247	0.352	0.385	0.389	0.434	0.378	0.481	0.387	0.302	0.204	0.176
NCI-H1648	0.309	–	0.273	0.275	0.235	0.5	0.314	0.608	0.51	0.342	0.254	0.264	0.264	0.255	0.215	–	–	–	–	–
LCLC-97TM1	0.217	0.284	0.229	0.219	0.182	0.235	0.198	0.209	0.194	0.104	0.514	0.46	0.466	0.527	0.379	0.451	0.439	0.45	0.449	0.168
HCC-15	0.798	0.684	0.803	0.709	0.594	0.522	0.422	0.402	0.425	0.463	0.647	0.75	0.619	0.663	0.536	0.482	0.475	0.462	0.287	0.269
CAL-12T	0.567	0.418	0.478	0.504	0.371	0.344	0.41	0.307	0.31	0.368	0.734	0.745	0.612	0.759	0.503	0.574	0.554	0.411	0.273	0.174
NCI-H727	0.677	0.691	0.758	0.601	0.627	0.577	0.652	0.666	0.617	0.627	0.688	0.611	0.429	0.527	0.511	0.399	0.461	0.375	0.262	0.235
ABC-1	0.72	0.606	0.78	–	0.556	0.187	0.2	0.163	0.213	0.205	0.404	0.423	0.481	0.494	0.379	0.22	0.256	0.245	0.221	0.238
NCI-H2023	0.436	0.373	0.439	0.328	0.363	0.524	0.34	0.372	0.281	0.309	0.379	0.44	0.37	0.354	0.3	0.355	0.331	0.291	0.224	0.173
